# Measurements published in patent US20240368668A1, “SUBSTRATES AND BIOMARKERS OF ADAMTS7” (The Broad Institute, Inc., priority 2021, published 2024).
# Square brackets hold non-standard residues; d marks the D form. Ends that are not written are not given here.
# Test system: mouse ADAMTS7
# Experiment: TMT10 TAILS N-terminomics, SMC2 experiment (process replicates, trypsin/AspN digest)
# Assay type: cell-based
# Conditions: SMC2_TAILS HC; log fold change of N-terminal peptide, Ad-mADAMTS7 WT over EQ
# Outline: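 Full-length mouse ADAMTS7 (WT or E373Q mutant, C-terminal 3xFLAG) or luciferase was transduced via adenovirus, 50 MOI, into HCA-SMC (SMC1, SMC2) or HUVEC. SMC1: pooled media, technical triplicates 400 ug; SMC2: process triplicates 300 ug; HUVEC: process triplicates 200 ug, bFGF2 10 ng/ml.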
row,Substance,logFC.mWT.over.mEQ
1,VCAN_3367 (FKNSSSAK; listed as Homo sapiens),1.51
2,VIM_276 (YESVAAKNLQ; listed as Homo sapiens),0.83
3,VIM_322 (QVQSLTCEV; listed as Homo sapiens),1.11
4,ZSCAN4_25 (FQQSQGPAVQR; listed as Homo sapiens),2.89

# Same assay, conditions: SMC2_TAILS HC; log fold change, mWT over mEQ
row,Substance,logFC.mWT.over.mEQ
1,ACTG1_105 (LTEAPLNPKANR; listed as Homo sapiens),2.11
2,ACTN4_5 (HAANQSYQYGPSSAGNGAGGGGSMG; listed as Homo sapiens),2.64
3,ADAM9_74 (GKEHIIHLER; listed as Homo sapiens),4.31
4,ADAM10_86 (FKVETSNKVL; listed as Homo sapiens),2.74
5,ADNP2_375 (SQPVGPVNK; listed as Homo sapiens),0.75
6,AMER2_654 (LAGTTIRATACH; listed as Homo sapiens),0.90
7,APLP2_452 (LVETHLAR; listed as Homo sapiens),2.59
8,APOA1_86 (EQLGPVTQEFW; listed as Homo sapiens),1.88
9,BMPER_43 (LTGSVAKCENEG; listed as Homo sapiens),2.43
10,CALU_176 (FTAFLHPEEY; listed as Homo sapiens),2.38
11,CAP1_300 (FSAPKPQTSPSPKR; listed as Homo sapiens),2.81
12,CCL2_28 (INAPVTCCYNFTNR; listed as Homo sapiens),1.46
13,CEP192_728 (DKSTAGR; listed as Homo sapiens),2.95
14,CTSB_109 (WAFGAVEAIS; listed as Homo sapiens),1.73
15,DBN1_434 (APVEPATA; listed as Homo sapiens),1.57
16,DIS3L_75 (FPELKGIIFMQTACQAVQHQR; listed as Homo sapiens),1.78
17,ECM1_38 (FQEVGYAAPPSPPLSR; listed as Homo sapiens),1.57
18,ECM1_44 (AAPPSPPLSR; listed as Homo sapiens),2.54
19,ECM1_108 (QEAVPLQK; listed as Homo sapiens),3.34
20,EEF1G_23 (QYSGAQVR; listed as Homo sapiens),3.30
21,EIF4B_426 (QTGTSTTSSR; listed as Homo sapiens),5.12

row,Substance,logFC.mWT.over.mEQ
1,EMSY_943 (QTVVQVLAVK; listed as Homo sapiens),0.92
2,FBLN2_665 (FSQVASNTIPLPLPQPNTCK; listed as Homo sapiens),1.89
3,FLNA_689 (VNKPAEFTV; listed as Homo sapiens),6.12
4,FLNC_2649 (FVGQKNSFTV; listed as Homo sapiens),3.97
5,FN1_35 ([code q]MVQPQSPVAVSQSKPGCY; not fully specified (residue 2); listed as Homo sapiens),2.08
6,FN1_99 (DKYTGNTYR; listed as Homo sapiens),1.43
7,FN1_607 (SSSGPVEVFIT; listed as Homo sapiens),0.63
8,FN1_1693 (LQPTVEYVVSVYAQNPSG; listed as Homo sapiens),2.05
9,FN1_1780 (LQGLRPGSEYTVSVVALH; listed as Homo sapiens),2.01
10,FN1_1805 (LIGTQSTAIPAPT; listed as Homo sapiens),1.73
11,FN1_2113 (FVTHPGY; listed as Homo sapiens),1.57
12,FOXG1_235 (LNKCFVKVPRHY; listed as Homo sapiens),3.34
13,FSTL_1290 (LQKHQETA; listed as Homo sapiens),2.86
14,HEG1_51 (GLELQLER; listed as Homo sapiens),0.65
15,HEG1_224 (FQTKSGTAS; listed as Homo sapiens),3.25
16,KCND1_436 (RLAKSGTTNAFLQYKQNGGLE; listed as Homo sapiens),1.74
17,KRT28_2 (SLQFSNGSR; listed as Homo sapiens),2.22
18,LASP1_182 (SYGGYKEPAAPVSIQR; listed as Homo sapiens),1.01
19,LOXL1_157 (SVSASAFASTYR; listed as Homo sapiens),2.90
20,LOX_60 (LGSQYQPQR; listed as Homo sapiens),1.59
21,LOX_125 (FQAGYSTSR; listed as Homo sapiens),3.33

# Same assay, conditions: TAILS HC Overlap; SMC2; log fold change mouse ADAMTS7 WT over catalytically inactive EQ
row,Substance,SMC2 logFC.mWT.over.mEQ
1,FSTL1_290 (LQKHQETA; listed as Homo sapiens),2.86

# Same assay, conditions: log fold change, ADAMTS7 WT over EQ
row,Substance,logFC.mWT.over.mEQ
1,QSOX1_558 (VAAAPELAMGALELESR; listed as Homo sapiens),1.13
2,SDC4_106 (LEENEVIPKR; listed as Homo sapiens),1.67
3,SERPINH1_27 (AAAPGTAEKLSPKAATLAER; listed as Homo sapiens),3.30
4,SMOC1_35 (LISDRDPQCNLHCSR; listed as Homo sapiens),1.62
5,SPOCK1_126 (HWVGPSNLVK; listed as Homo sapiens),0.93
6,SRGN_50 (LEEKGPMFELLPGESNKIPR; listed as Homo sapiens),3.28
7,SRGN_51 (EEKGPMFELLPGESNKIPR; listed as Homo sapiens),1.79
8,SRGN_60 (LPGESNKIPR; listed as Homo sapiens),3.25
9,SRGN_62 (GESNKIPR; listed as Homo sapiens),3.26
10,STC1_37 (QNSAEVVR; listed as Homo sapiens),4.78
11,STC2_239 (HGEAGHHLPEPSSR; listed as Homo sapiens),1.70
12,STC2_244 (HHLPEPSSR; listed as Homo sapiens),1.35
13,TGFBI_24 (GPAKSPYQLVLQHSR; listed as Homo sapiens),0.71
14,TGFBI_43 ([code q]HGPNVCAVQKVIGTNR; not fully specified; listed as Homo sapiens),0.75
15,TGFBI_50 (AVQKVIGTNR; listed as Homo sapiens),0.64
16,TGFBI_208 (GIVTVNCAR; listed as Homo sapiens),0.59
17,TGFBI_276 (TLLAPT[code n]EAFEKIPSETLNR; not fully specified; listed as Homo sapiens),0.66
18,TGFBI_497 (VLTPPMGTVMDVLKGDNR; not fully specified (residue 6); listed as Homo sapiens),0.61
19,TGFBI_524 (SAGLTETLNR; listed as Homo sapiens),0.66
20,TGFBI_534 (EGVYTVFAPTNEAFR; listed as Homo sapiens),0.82
21,TG_1017 (GASALLR; listed as Homo sapiens),3.05
22,THBS1_972 (QNDPNWVVR; listed as Homo sapiens),3.59
23,TLN1_1501 (HTSALCNSCR; listed as Homo sapiens),1.48
24,TMEM132A_52 (LLDAPEHFR; listed as Homo sapiens),2.95
25,VASN_138 (HIQPGAFDTLDR; listed as Homo sapiens),1.45
26,VASP_229 (AIAGAKLR; listed as Homo sapiens),4.56
27,VIM_433 (LVDTHSKR; listed as Homo sapiens),2.79
